Source: patent US8071630B2 (priority 2002, dated 2011)
Counter-ions that a name gives are not always drawn.

Tests used:
[1] = system: Aspergillus awamori transformed with the aequorin gene; test: Example 6: aequorin luminometry of [Ca2+]c response (toxicity) in Aspergillus awamori; assay type: cell-based; conditions: FIG. 1A
[2] = system: ouabain-induced arrhythmias; conditions: in vivo; cited from earlier work
[3] = system: isoprenaline-induced tachycardia; conditions: in vivo; cited from earlier work
[4] = Stability in aqueous solution; assay type: physicochemical; conditions: only freshly made stocks are effective; product a lot less toxic
Source text: 4 pairs of optical enantiomers or salts thereof of the following chemicals were used in this study: • (R)-(+)-α-Methylbenzyl isocyanate and (S)-(−)-α-Methylbenzyl isocyanate. Only freshly made stocks of α-Methylbenzyl […] are effective.

## COC(=O)C1=C(C)NC(C)=C([N+](=O)[O-])[C@@H]1c1ccccc1C(F)(F)F [(R)-(+)-BAY K8644]
[1]; preincubation 5 min with 10 μM simple dilution, n=6
  [Ca2+]c response to 10 μM (S)-(−)-BAY K8644: significant inhibition
[1]; preincubation with 10 μM, then 10 μM (S)-(−)-BAY K8644
  [Ca2+]c final resting level: lower

## (S)-(−)-propranolol hydrochloride [(S)-(−)-propranolol HCl]
[2]
  effectiveness in abolishing ouabain-induced arrhythmias: little effect

## CC(C)NCC(O)COc1cccc2ccccc12 (racemic) [propranolol hydrochloride]
[2]
  effectiveness in abolishing ouabain-induced arrhythmias: equally effective

## CC(C)NCC(O)COc1cccc2ccccc12 (single isomer, unassigned; (+)) [(+)-propranolol]
[3]
  activity in blocking isoprenaline-induced tachycardia relative to racemic propranolol: less than a hundredth the activity of racemic propranolol
[2]
  effectiveness in abolishing ouabain-induced arrhythmias: equally effective

## CC(N=C=O)c1ccccc1 (stereo not drawn) [α-Methylbenzyl isocyanate]
[4]
  stability in aqueous solution: will react with water
